Test results: patent US8129527B2, “Analogs of dehydrophenylahistins and their therapeutic use” (Nereus Pharmacuticals, Inc., priority 2006, dated 2012)
pEC50: −log10 of the molar value. Read-outs that look alike come from different tables or passages of the source.

How the values were obtained:
HT-29 cells = test: Additional cytotoxicity assays, resazurin (Table 3.1); type: cell-based, human; conditions: for EC50: Homo sapiens
Description: 10× concentrated serial dilutions of the two compounds were prepared in appropriate culture medium for final concentrations ranging from 2.0×10^−5 M to 2.0×10^−10 M. Ten μl volumes of the 10× serial dilutions were added to the test wells in triplicate and the plates returned to the incubator for 48 hours.
(§1) Following 48 hours of drug exposure 10 μl of 0.2 mg/ml resazurin (obtained from Sigma-Aldrich Chemical Co.) in Mg^2+, Ca^2+ free PBS was added to each well and the plates were returned to the incubator for 3-4 hours. […] Resazurin dye without cells was used to determine the background, which was subtracted from the data for all experimental wells. The data were analyzed using Prism software (GraphPad Software).
Additional cytotoxicity assays were performed as described above under this example, using Resazurin fluorescence as an indicator of cell viability.

[1] = system: HT-29 human colorectal carcinoma cells; test: Cell growth inhibition assay, resazurin (Table 3.2); type: cell-based
Description: The cytotoxic effects of various derivatives of dehydrophenylahistin against HT-29 human colorectal carcinoma cells were determined.
HT-29 cells (ATCC; HTB-38) were maintained in ATCC recommended culture media and cultured in an incubator at 37° C. in 5% CO2 and 95% humidified air.
For cell growth inhibition assays, HT-29 cells were seeded at 5×10^3 cells/well in 90 μl complete media into a Corning 3904 black-walled, clear-bottom tissue culture plates and the plates were incubated overnight to allow cells to establish and enter log phase growth. 20 mM stock solutions of compounds were prepared in 100% DMSO and stored at −80° C. 10× concentrated serial dilutions of the compounds were prepared in culture medium for final concentrations ranging from 20 μM to […]. Ten μl volumes of the 10× serial dilutions were added to the test wells in triplicate and the plates returned to the incubator for 48 hours. The final concentration of DMSO was 0.25% in all samples.
as §1, with “exposure,” for “exposure”, “phosphate buffered saline” for “PBS”, “dye in medium” for “dye”, “wells.” for “wells. The data were analyzed using Prism software (GraphPad Software).”

HT-29 human colon cells = test: Tumor cytotoxicity assay, resazurin fluorescence, 48 h (Example 6); type: cell-based; conditions: for EC50 / pEC50: Homo sapiens; for EC50: Table 3, read-out: EC50 (nM) HT-29; for cytotoxic activity against HT-29 cells / activity compared with tBu-dehydroPLH: in words
[2] = HT-29, Table 3.1, read-out: EC50 (M) Mean
[3] = Table 3.2, HT-29 cells, read-out: EC50 (M) Mean
[4] = HT-29, Table 5, synthetic potent dehydroPLH derivatives, read-out: EC50
[5] = Table 7, electron-withdrawing group, proliferation of HT-29 cells, read-out: EC50
[6] = Table 8, electron-donating group, proliferation of HT-29 cells, read-out: EC50
[7] = Table 11, replacement with the heteroaryl ring, proliferation of HT-29 cells, read-out: EC50

Compound: COc1cccc(/C=c2\[nH]c(=O)/c(=C/c3nc[nH]c3C(C)(C)C)[nH]c2=O)c1N [Compound 2455, tBu-delta-PLH-2-NH2-3-OMe]
- EC50 (HT-29 cells; [2]): 3.49e-07 M
- % cytotox Mean (HT-29 cells; Table 3.1): 87%

Compound: CC(C)(C)c1[nH]cnc1/C=c1\[nH]c(=O)/c(=C/c2ccccc2N)[nH]c1=O [Compound 2457, tBu-delta-PLH-2-NH2]
- EC50 (HT-29 cells; [2]): 4.32e-07 M
- % cytotox Mean (HT-29 cells; Table 3.1): 86%

Compound: CC(C)(C)c1[nH]cnc1/C=c1\[nH]c(=O)/c(=C/c2cccc(N)c2)[nH]c1=O [Compound 2458, tBu-delta-PLH-m-NH2]
- EC50 (HT-29 cells; HT-29, read-out: EC50 (M) Mean): 3.1e-08 M
- % cytotox Mean (HT-29 cells; Table 3.1): 87%

Compound: CC(C)(C)c1[nH]cnc1/C=c1\[nH]c(=O)/c(=C/c2sccc2B(O)O)[nH]c1=O [Compound 2459, tBu-delta-PLH-3-B(OH)2-2-thienyl]
- EC50 (HT-29 cells; [2]): 2.53e-08 M
- % cytotox Mean (HT-29 cells; Table 3.1): 88%

Compound: CC(C)(C)c1[nH]cnc1/C=c1\[nH]c(=O)/c(=C/c2cc(Cl)ccc2N)[nH]c1=O [Compound 2461, tBu-delta-PLH-5-Cl-2-NH2]
- EC50 [1, 3]: 2.95e-07 M

Compound: COc1cccc(/C=c2\[nH]c(=O)/c(=C/c3ncoc3C(C)(C)C)[nH]c2=O)c1 [Compound 2462, tBu-Oxadelta-PLH-m-OMe]
- EC50 ([1]; HT-29, read-out: EC50 (M) Mean): 5.41e-08 M

Compound: CC(C)(C)c1ocnc1/C=c1\[nH]c(=O)/c(=C/c2cccc3ccccc23)[nH]c1=O [Compound 2464, tBu-Oxadelta-PLH-1-naphth]
- EC50 ([1]; HT-29, read-out: EC50 (M) Mean): 5.37e-08 M

Compound: CC(C)(C)c1ocnc1/C=c1\[nH]c(=O)/c(=C/c2ccccc2Cl)[nH]c1=O [Compound 2465, tBu-Oxadelta-PLH-2-Cl]
- EC50 [1, 3]: 5.4e-08 M

Compound: Cc1cccc(/C=c2\[nH]c(=O)/c(=C/c3ncoc3C(C)(C)C)[nH]c2=O)c1 [Compound 2466, tBu-Oxadelta-PLH-3-CH3]
- EC50 ([1]; HT-29, read-out: EC50 (M) Mean): 5.55e-08 M

Compound: CC(C)(C)c1ocnc1/C=c1\[nH]c(=O)/c(=C/c2cccc(Cl)c2)[nH]c1=O [Compound 2467, tBu-Oxadelta-PLH-3-Cl]
- EC50 ([1]; HT-29, read-out: EC50 (M) Mean): 5.41e-08 M

Compound: CC(C)(C)c1ocnc1/C=c1\[nH]c(=O)/c(=C/c2cccc(Cl)c2Cl)[nH]c1=O [Compound 2468, tBu-Oxadelta-PLH-2,3-diCl]
- EC50 ([1]; HT-29, read-out: EC50 (M) Mean): 7.92e-08 M

Compound: COc1cc(/C=c2\[nH]c(=O)/c(=C/c3ncoc3C(C)(C)C)[nH]c2=O)cc(OC)c1 [Compound 2469, tBu-Oxadelta-PLH-3,5-diOMe]
- EC50 [1, 3]: 8.63e-08 M

Compound: CC(C)(C)c1ocnc1/C=c1\[nH]c(=O)/c(=C/c2cc(Cl)cc(Cl)c2)[nH]c1=O [Compound 2470, tBu-Oxadelta-PLH-3,5-diCl]
- EC50 [1, 3]: 2.78e-07 M

Compound: CCOc1cccc(/C=c2\[nH]c(=O)/c(=C/c3ncoc3C(C)(C)C)[nH]c2=O)c1 [Compound 2471, tBu-Oxadelta-PLH-m-OEt]
- EC50 [1, 3]: 1.01e-07 M

Compound: Cc1ccccc1/C=c1\[nH]c(=O)/c(=C/c2ncoc2C(C)(C)C)[nH]c1=O [Compound 2472, tBu-Oxadelta-PLH-o-Me]
- EC50 ([1]; HT-29, read-out: EC50 (M) Mean): 5.46e-08 M

Compound: CC(C)(C)c1ocnc1/C=c1\[nH]c(=O)/c(=C/c2cccc(Br)c2)[nH]c1=O [Compound 2473, tBu-Oxadelta-PLH-3-Br]
- EC50 [1, 3]: 5.59e-08 M

Compound: COc1cc(/C=c2\[nH]c(=O)/c(=C/c3nc[nH]c3C(C)(C)C)[nH]c2=O)cc(OC)c1 [KPU-16, tBu-ΔPLH-3,5-diOMe]
- EC50 (HT-29 human colon cells; HT-29): 42 nM
- pEC50 (HT-29 human colon cells; [4]): 7.38
- cytotoxic activity against HT-29 cells (HT-29 human colon cells): showed high activity

Compound: CC(C)(C)c1[nH]cnc1/C=c1\[nH]c(=O)/c(=C/c2cc([N+](=O)[O-])ccc2Cl)[nH]c1=O [KPU-21, tBu-ΔPLH-2Cl-5-NO2]
- EC50 (HT-29 human colon cells; HT-29): 51 nM
- pEC50 (HT-29 human colon cells; [5]): 7.29

Compound: CC(C)(C)c1[nH]cnc1/C=c1\[nH]c(=O)/c(=C/c2ccc3c(c2)OCO3)[nH]c1=O [KPU-22, tBu-ΔPLH-3,4-methylene-dioxy]
- EC50 (HT-29 human colon cells; HT-29): 82 nM
- pEC50 (HT-29 human colon cells; [6]): 7.09

Compound: COc1cccc(/C=c2\[nH]c(=O)/c(=C/c3nc[nH]c3C(C)(C)C)[nH]c2=O)c1O [KPU-23, tBu-ΔPLH-2-OH-3-OMe (o-vanillin)]
- EC50 (HT-29 human colon cells; HT-29): 5870 nM
- pEC50 (HT-29 human colon cells; [6]): 5.23

Compound: COc1cccc2cc3c(=O)[nH]/c(=C\c4nc[nH]c4C(C)(C)C)c(=O)n3c12 [KPU-24, tBu-ΔPLH-cyclized-3-MeO]
- EC50 (HT-29 human colon cells; HT-29): 7040 nM
- pEC50 (HT-29 human colon cells; Table 6, proliferation of HT-29 cells, read-out: EC50): 5.15

Compound: Cc1ccc(/C=c2\[nH]c(=O)/c(=C/c3nc[nH]c3C(C)(C)C)[nH]c2=O)s1 [KPU-27, tBu-ΔPLH-5-Me-2-thienyl]
- EC50 (HT-29 human colon cells; HT-29): 80 nM
- pEC50 (HT-29 human colon cells; [7]): 7.10

Compound: Cc1ccsc1/C=c1\[nH]c(=O)/c(=C/c2nc[nH]c2C(C)(C)C)[nH]c1=O [KPU-29, tBu-ΔPLH-3-Me-2-thienyl]
- EC50 (HT-29 human colon cells; HT-29): 44 nM
- pEC50 (HT-29 human colon cells; [4]): 7.36
- cytotoxic activity against HT-29 cells (HT-29 human colon cells): exhibited activity

Compound: CC(C)(C)c1[nH]cnc1/C=c1\[nH]c(=O)/c(=C/c2cccc3c2OCO3)[nH]c1=O [KPU-30, tBu-ΔPLH-2,3-methylendioxy]
- pEC50 (HT-29 human colon cells; [6]): 6.32

Compound: Cc1cccc(/C=c2\[nH]c(=O)/c(=C/c3nc[nH]c3C(C)(C)C)[nH]c2=O)n1 [KPU-33, tBu-ΔPLH-3-Me-2-pyridyl]
- pEC50 (HT-29 human colon cells; [7]): < 4.70

Compound: Cc1[nH]cnc1/C=c1\[nH]c(=O)/c(=C/c2nc[nH]c2C(C)(C)C)[nH]c1=O [KPU-36, tBu-ΔPLH-5-Me-4-im]
- pEC50 (HT-29 human colon cells; [7]): 5.55

Compound: CC(C)(C)c1[nH]cnc1/C=c1\[nH]c(=O)/c(=C/c2ccc(C#N)cc2)[nH]c1=O [KPU-43, tBu-ΔPLH-p-CN]
- pEC50 (HT-29 human colon cells; [5]): < 4.70

Compound: COc1cc(OC)c(/C=c2\[nH]c(=O)/c(=C/c3nc[nH]c3C(C)(C)C)[nH]c2=O)c(OC)c1 [KPU-45, tBu-ΔPLH-2,4,6-TriOMe]
- cytotoxic activity against HT-29 cells (HT-29 human colon cells): also showed activity

Compound: CC(C)(C)c1[nH]cnc1/C=c1\[nH]c(=O)/c(=C/c2cc(Cl)ccc2[N+](=O)[O-])[nH]c1=O [KPU-52, tBu-ΔPLH-2-NO2-5-Cl]
- pEC50 (HT-29 human colon cells; [5]): 6.96

Compound: COc1ccc(O)c(/C=c2\[nH]c(=O)/c(=C/c3nc[nH]c3C(C)(C)C)[nH]c2=O)c1 [KPU-54, tBu-ΔPLH-2-OH-5-OMe]
- pEC50 (HT-29 human colon cells; [6]): < 4.70

Compound: COc1ccc(/C=c2\[nH]c(=O)/c(=C/c3nc[nH]c3C(C)(C)C)[nH]c2=O)cc1O [KPU-57, tBu-delta-PLH-3-OH-4-OMe]
- pEC50 (HT-29 human colon cells; [6]): < 4.70

Compound: COc1ccc(/C=c2\[nH]c(=O)/c(=C/c3nc[nH]c3C(C)(C)C)[nH]c2=O)c(O)c1 [KPU-58, tBu-ΔPLH-2-OH-4-OMe]
- pEC50 (HT-29 human colon cells; [6]): < 4.70

Compound: CC(C)(C)c1[nH]cnc1/C=c1\[nH]c(=O)/c(=C/c2ccc(Cl)s2)[nH]c1=O [KPU-61, tBu-ΔPLH-5-Cl-2-thionyl]
- pEC50 (HT-29 human colon cells; HT-29, Table 11, replacement with the heteroaryl ring, proliferation of HT-29 cells): 6.74

Compound: Cn1cccc1/C=c1\[nH]c(=O)/c(=C/c2nc[nH]c2C(C)(C)C)[nH]c1=O [KPU-63, tBu-ΔPLH-N-Me-2-pyrrole]
- pEC50 (HT-29 human colon cells; [7]): 6.98

Compound: CC(C)(C)c1[nH]cnc1/C=c1\[nH]c(=O)/c(=C/c2cccc(OC(F)(F)F)c2)[nH]c1=O [KPU-80, TBu-ΔPLH-m-OCF3]
- pEC50 (HT-29 human colon cells; [4]): 7.89
- activity compared with tBu-dehydroPLH (HT-29 human colon cells): higher activity than tBu-dehydroPLH

Compound: COc1ccc(F)c(/C=c2\[nH]c(=O)/c(=C/c3nc[nH]c3C(C)(C)C)[nH]c2=O)c1 [KPU-81, TBu-ΔPLH-2-F-5-OMe]
- pEC50 (HT-29 human colon cells; [4]): 7.72
- activity compared with tBu-dehydroPLH (HT-29 human colon cells): higher activity than tBu-dehydroPLH

Compound: Cc1cccc(/C=c2\[nH]c(=O)/c(=C/c3nc[nH]c3C(C)(C)C)[nH]c2=O)c1C [KPU-90, 3-{(Z)-1-[5-(tert-Butyl)-1H-4-imidazolyl]methylidene}-6-[(Z)-1-(2,3-dimethylphenyl)methylidene]-2,5-piperazinedione]
- potency relative to dehydroPLH (HT-29 human colon cells): 16 times
- potency relative to tBu-dehydroPLH (HT-29 human colon cells): 4 times
- pEC50 (HT-29 human colon cells; [4]): 8.52
- pEC50 (HT-29 human colon cells; HT-29, text to Table 5, most potent compound, read-out: EC50 value): 8.52

Compound: CC(C)(C)c1[nH]cnc1/C=c1\[nH]c(=O)/c(=C/c2ccccc2)[nH]c1=O [tBu-dehydrophenylahistin, 3-Z-Benzylidene-6-(5″-tert-butyl-1H-imidazol-4″-Z-ylmethylene)-piperazine-2,5-dione]
- greater cytotoxic activity in comparison with dehydrophenylahistin (HT-29 human colon cells; Table 1 text): ~4 times
